Assays:
[1] = test system: 6-hydroxydopamine lesion of the substantia nigra; test: 6-Hydroxydopamine (6-OH-DA) lesion in the rat, staircase test (forepaw coordination); format: in vivo; conditions: bid, i.p.
[2] = test system: B16F10; test: Growth inhibition test (MTT), cytotoxic properties on tumour cell lines; format: cell-based; conditions: Mus musculus, B16-F10, 144 h, day 6, read-out: cytotoxic effect IC50
Description: (§1) The human colon cell lines SW 480 and HT 29 (ATCC Nos. CCL 228 and HBT-38), the mouse melanoma cell line B16F10 and the human prostate tumour cell lines LNCaP-FGC, PC-3 and DU 145 (ATCC No. CRL-10995, CRL-1435, HTB-81) were grown in RPMI 1640 medium with addition of 10% FCS in Roux dishes. This was followed by trypsinization and taking up in RPMI plus 10% FCS to a cell count of 50 000 cell/ml. 100 μl of cell suspension/well were put in a 96-microwell plate and incubated in a CO2 incubator at 37° C. for 1 day. A further 100 μl of RPMI medium and 1 μl of DMSO with galiella lactone were then added. The growth was monitored after day 6. For this purpose, 40 μl of MTT solution (3-(4,5-dimethylthiazol-2-yl)-2,5-diphenyltetrazolium bromide) with an initial concentration of 5 mg/ml of H2O were added to each microwell. Incubation took place in a CO2 incubator at 37° C. for 5 hours. The medium was then separated off, and 100 μl of i-propanol/well were added. After shaking with 100 μl of H2 O for 30 min, the extinction at 540 nm was measured with a Titertek Multiscan MCC/340 (flow).
(§2) The cytotoxic effect is indicated in the table as IC50 (galiella lactone concentration in μM) for the various tumour cell lines: […]

[3] = test system: SW 480; test: as above; format: cell-based; conditions: Homo sapiens, 144 h; SW480, MTT, day 6; read-out: cytotoxic effect IC50
Description: as §1, §2

[4] = test system: HT 29; test: as above; format: cell-based; conditions: Homo sapiens, HT-29, 144 h; HAT29, MTT, day 6; read-out: cytotoxic effect IC50
Description: as §1, §2

[5] = test system: PC-3; test: as above; format: cell-based; conditions: Homo sapiens, 144 h; PC-3, MTT, day 6; read-out: cytotoxic effect IC50
Description: as §1, §2

[6] = test system: LNCaP-FGC; test: as above; format: cell-based; conditions: Homo sapiens, 144 h, day 6, read-out: cytotoxic effect IC50
Description: as §1, §2

[7] = test system: DU 145; test: as above; format: cell-based; conditions: Homo sapiens, DU-145, 144 h; DU145, MTT, day 6; read-out: cytotoxic effect IC50
Description: as §1, §2

For C[C@H]1C=C2C(=O)O[C@H]3CC[C@@H](C1)[C@@]23O [galiella lactone], the “fine motor control of the forepaws (staircase test)” value ([1]; 1.0 mg/kg) was “improved”, the “fine motor control of the forepaws (staircase test)” value ([1]; 3.0 mg/kg) was “improved” and the IC50 [2] was 3 µM. It also gave an IC50 [3] of 5 µM, an IC50 [4] of 5 µM and an IC50 [5] of 4 µM. It also gave an IC50 [6] of 2 µM and an IC50 [7] of 4.5 µM.
